The values that follow are results of earlier work, collected in US5837685A (priority 1996, dated 1998).

In data set [1] the test system is patients. The conditions noted are these: some impairment of renal function regardless of dosage.
Data set [2] relates to Candida.

As to `C[C@@H]1[C@H](O)[C@@H](C)/C=C/C=C/C=C/C=C/C=C/C=C/C=C/[C@H](O[C@@H]2O[C@H](C)[C@@H](O)[C@H](N)[C@@H]2O)C[C@@H]2O[C@](O)(C[C@@H](O)C[C@@H](O)[C@H](O)CC[C@@H](O)C[C@@H](O)CC(=O)O[C@H]1C)C[C@H](O)[C@H]2C(=O)O` [Amphotericin B], the toxicity entry in data set [1] is “highly toxic”. Also, in data set [2], the “active in vitro at concentrations of” value was 0.01 to 2 µg/mL.
